Data on 8 molecules can be found in PMC9706033 (Journal of Microbiology and Biotechnology, 2021).

What is called solubility is how much of the substance goes into solution per volume. One may read the pEC50 as the negative decadic logarithm of the EC50, by convention in mol/L. Usually pIC50 stands for the negative decadic logarithm of the IC50, by convention in mol/L. Usually inhibition stands for the change of the read-out against control, counted positive when it falls.

Series [1] in a line: Water solubility determination (UPLC of supernatant). The class given is physicochemical. On the procedure:
Each sample was centrifuged at 16,000 g for 30 min. Subsequently, the supernatant of each sample was filtered, and the concentration of the compound in the supernatant as a water-soluble component was estimated by UPLC analysis.

Series [2] in a line: DPPH free-radical scavenging assay. The protocol: DPPH free-radical scavenging capability and ferric reducing antioxidant power (FRAP) assay results were evaluated as described previously by Moon et al.. Hydroxy radical-scavenging assay was measured as described by Su et al.. Vitamin C was used as a positive control. Each assay was measured from 1 min to 30 h. The DPPH radical-scavenging activity was calculated as follows: DPPH radical-scavenging activity (%) = (1-Asample/Ablank) × 100, where Asample is the absorbance in the presence of the sample, and Ablank is the absorbance of the blank. Hydroxy radical-scavenging activity was calculated in accordance with the following formula: Hydroxy radical scavenging activity (%) = (Asample-Acontrol)/(Ablank-Acontrol) × 100, where Asample is the absorbance in the presence of the sample, Acontrol is the absorbance of the blank with H2O2, and Ablank is the absorbance of the blank without H2O2.
On the technique in general: DPPH is a stable violet radical that fades when it is reduced.

The nature of series [3]: Hydroxyl radical scavenging assay.
The target in series [4] is T1, tyrosinase (Mus musculus, UniProt P11344).
T1 construct: endogenous in cells; host or cells: B16F10 melanoma cells, α-MSH-stimulated
T1 sequence (P11344 19-533): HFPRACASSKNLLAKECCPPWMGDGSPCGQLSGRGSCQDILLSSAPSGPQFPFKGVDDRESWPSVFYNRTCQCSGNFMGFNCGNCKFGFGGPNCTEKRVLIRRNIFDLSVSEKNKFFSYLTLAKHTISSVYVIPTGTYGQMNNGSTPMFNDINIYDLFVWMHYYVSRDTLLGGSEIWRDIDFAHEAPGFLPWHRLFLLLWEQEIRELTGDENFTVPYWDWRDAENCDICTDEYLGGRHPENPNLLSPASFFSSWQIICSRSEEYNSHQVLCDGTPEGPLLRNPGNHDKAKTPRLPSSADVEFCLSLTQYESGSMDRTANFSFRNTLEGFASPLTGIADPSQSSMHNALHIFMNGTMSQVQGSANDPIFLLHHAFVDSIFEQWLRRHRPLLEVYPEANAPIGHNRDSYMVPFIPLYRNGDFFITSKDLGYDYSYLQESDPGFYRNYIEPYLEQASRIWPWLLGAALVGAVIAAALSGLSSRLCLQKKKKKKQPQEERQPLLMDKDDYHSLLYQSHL
Put plainly: Cellular tyrosinase activity in α-MSH-stimulated B16F10 melanoma cells. It is filed as cell-based. The conditions noted are these: 48 h; for inhibition at 300 µM: B16-F10.

The test system of series [5] is polyphenol oxidases. The conditions noted are these: cited from earlier work.
For series [6] the following is noted: humans; cited from earlier work.
The test system of series [7] is B16F10 melanoma cells. It is filed as cell-based. The conditions noted are these: mouse, 24 h. The protocol:
Cell culture and cell viability assay. B16F10 melanoma cells were maintained in DMEM supplemented with 10% FBS, 100 U/ml penicillin, and 100 μg/ml streptomycin. The cells were cultured at 37°C under 5% CO2 in a humidified culture chamber. Cell viability was determined by 3-(4,5-dimethythiazol-2-yl)-2,5-diphenyl tetrazolium bromide (MTT) assay. The cells (6 × 10^3 cells/well) were seeded into 96-well plates and cultured for 24 h. […] After 24 h, the cells were washed with PBS, MTT reagent (0.5 mg/ml) was added to each well, and the cells were incubated at 37°C for 1 h. The supernatant in each well was discarded for the treatment with DMSO, which was used to dissolve the formazan crystals formed from viable cells. After the DMSO treatment, the absorbance of each well was measured at 595 nm using a microplate reader (Epoch, Biotek, USA).

Series [8] can be described thus: Stability against oxidative degradation in buffer solutions and cell culture medium. The class given is physicochemical. As to conditions: 37°C, up to 72 h, read-out: Half-life, t1/2 (converted).
Series [9] has as its system B16F10 cells. The experiment in a line: Cellular uptake assay (UPLC of medium and cell lysates). The conditions noted are these: after 24 h incubation with B16F10 cells; resveratrol 20 μM, glucosides 100 μM. The class given is cell-based. On the procedure: The cellular uptake assay was conducted following the method described by Moon et al. with minor modification. The B16F10 cells (2 × 10^5 cells/well) were seeded into 6-well plates. […] After 24 h of incubation, the medium was removed, and the cells were washed with PBS and then scraped off. […] The lysate was centrifuged at 16,000 g for 10 min and filtered by a 0.2 μm syringe filter. The cell extracts were analyzed by UPLC.

Series [10] concerns tyrosinase. The arrangement: method as in PMID 7765966. The conditions noted are these: tyrosinase of B16 mouse melanoma; cited from earlier work.
On the set-up of series [11]: method as in PMID 9599270. As to conditions: read-out: Antioxidant activity IC50; cited from earlier work.
In series [12] the test system is B16F10 melanoma cells. The experiment in a line: Cellular melanin content in α-MSH-stimulated B16F10 melanoma cells. The class given is cell-based. As to conditions: 72 h. On the procedure:
Cellular melanin content was determined by the method of Park et al. with minor modifications. The cells (5 × 10^4 cells/well) were seeded into 6-well plates and cultured for 24 h. […] Then, the cells were washed with PBS and lysed with lysis buffer, and the supernatant was removed by centrifugation at 16,000 g for 15 min at 4°C. The protein concentration of the supernatant was determined by the Bradford method. The pellet was dissolved in 1 M NaOH and measured at 405 nm using a microplate reader.

Where [13] appears, read: distilled water, sonicated 1 h at room temperature.
Where [14] appears, read: Buffer pH 2.0 (hydrochloric acid).
Where [15] appears, read: DMEM cell culture medium without FBS, DMEM (without FBS).
Where [16] appears, read: phosphate-buffered saline, PBS (pH 7.4).
[17] abbreviates: simulated body fluid, SBF (pH 7.4).
Setting [18] is: 100 μM, α-MSH-stimulated B16F10.

pEC50, pIC50: −log10 of the molar value. Read-outs that look alike come from different tables or passages of the source.

As to `OC[C@H]1O[C@H](Oc2ccc(C=Cc3cc(O)cc(O)c3)cc2)[C@H](O)[C@@H](O)[C@@H]1O` [R1, resveratrol-4′-O-α-glucoside], in series [1] (setting [13]), the Water solubility is 515 µg/mL and the “Water solubility (molar)” value stood at 1319 µM.

Turning to `O=C1O[C@H]([C@@H](O)CO)C(O)=C1O` [vitamin C], in [2], the “Time to scavenge the DPPH radical” value is recorded as at most 30 min.

Molecule `Oc1ccc(/C=C/c2cc(O)cc(O)c2)cc1` [resveratrol, trans-3,5,4′-trihydroxystilbene] registered a Water solubility in series [1] (setting [13]) of 36 µg/mL. The solubility at 1 h in series [1] (distilled water, sonicated 1 h at room temperature, read-out: Water solubility (molar)) is 157.7 µM. The pEC50 is 3.86 in [3] (at 30 min), 3.28 in series [2] (at 30 min) and 3.93 in series [2] (at 5 h). Besides, the “Suppression of tyrosinase activity” value in [4] (20 μM, compared with cells treated with MSH alone) is 70.5%. The “Half-life (t1/2) in the reaction of polyphenol oxidases compared with piceid” value in [5] is recorded as “three times shorter”. Also, in series [6], the Oral bioavailability entry is on record as “less than 1%”. For the same molecule, the “Effect on growth of B16F10 cells” value in series [7] is recorded as “inhibited the growth of B16F10 cells in a dose-dependent manner”. Further, the half-life at 10 mM is above 72 h in [8] (setting [14]); 1.5 h in series [8] (Buffer pH 9.0 (Tris-HCl)); above 72 h in series [8] (setting [15]); 28 h in series [8] (setting [16]); 44 h in [8] (setting [17]). In addition, the “Amount remaining in the extracellular medium” value in series [9] was 59 % of the initial amount.

As for `OC[C@H]1O[C@H](Oc2cc(O)cc(C=Cc3ccc(O)cc3)c2)[C@H](O)[C@@H](O)[C@@H]1O` [R2, resveratrol-3-O-α-glucoside], in [1], the Water solubility is 471 µg/mL and the “Water solubility (molar)” value was determined as 1206 µM.

Turning to `OC[C@H]1O[C@H](Oc2ccc(O)cc2)[C@H](O)[C@@H](O)[C@@H]1O` [α-arbutin], the “Inhibitory activity, times as strong as that of β-arbutin” value in [10] is reported as 10 times.

For `OC[C@H]1O[C@@H](Oc2ccc(/C=C/c3cc(O)cc(O)c3)cc2)[C@H](O)[C@@H](O)[C@@H]1O` [resveratrol-4′-O-β-glucoside], the pIC50 in [11] was 3.00.

Consider `OC[C@H]1O[C@@H](Oc2cc(O)cc(/C=C/c3ccc(O)cc3)c2)[C@H](O)[C@@H](O)[C@@H]1O` [β-piceid], for which the solubility at 1 h in series [1] (thermodynamic from solid, distilled water, sonicated 1 h at room temperature, read-out: Water solubility) worked out at 137 µg/mL; in series [1] (thermodynamic from solid, distilled water, sonicated 1 h at room temperature, read-out: Water solubility (molar)), 351 µM. Besides, the pEC50 in series [3] (at 30 min) is 3.67; in [3] (at 5 h), 4.27; in series [2] (at 30 min) it was 3.36; in series [2] (at 5 h), 3.16. The “Suppression of tyrosinase activity” value in series [4] (setting [18]) was found to be 19.2%. In [4] (α-MSH-stimulated B16F10), this molecule registered an inhibition at 300 µM of 29.7%. In series [11], the pIC50 is 3.70. Moreover, the “Suppression of melanin synthesis” value is 36.5% in [12] (100 μM) and 46.3% in series [12] (300 μM). In series [7], the “Concentration affecting proliferation of B16F10 cells” value is listed as “above 100 μM”. In addition, the half-life at 10 mM in series [8] (setting [14]), in [8] (Buffer pH 9.0 (Tris-HCl)), in series [8] (setting [15]), in series [8] (setting [16]) and in series [8] (setting [17]) was above 72 h each time.

Consider `OC[C@H]1O[C@@H](Oc2ccc(O)cc2)[C@H](O)[C@@H](O)[C@@H]1O` [arbutin], for which the “Suppression of tyrosinase activity” value in series [4] (setting [18]) came out at 15.8%. In [4] (α-MSH-stimulated B16F10), this molecule yielded an inhibition at 300 µM of 25.6%. The “Suppression of melanin synthesis” value in series [12] (100 μM) is given as 51.2%; in [12] (300 μM), 74.5%.
